Results: patent publication US20230061319A1, “METHODS OF TREATING TUMORS” (CoImmune, Inc., priority 2020, published 2023)

Key:
human tumor cell lines [1] = conditions: broad range of human tumor cell lines; cited from earlier work
human tumor cell lines [2] = conditions: xenografts of human tumor cell lines; cited from earlier work
CMV pp65 specific CTLs [3] = test: Induction of CMV pp65 specific recall CTLs by PME-CD40L DCs in the presence of mTOR inhibitors; type: cell-based, human
Experimental: (§1) 300 x 10^6 peripheral blood mononuclear cells (PBMCs) were cultured in 30 mL AIM-V media (Thermo Fisher Scientific) in T150 flasks (Corning) for 2 hours to provide for the adherence of monocytes. Non-adherent cells were removed by washing the monolayers twice with cold phosphate buffered saline (PBS) (Cambrex), and the remaining monocytes were cultured in X-VIVO 15 medium (Cambrex) for 5 days, supplemented with 1000 U/mL each of granulocyte macrophage-colony stimulating factor (GM-CSF) (Bayer AG, Leukine® liquid) and IL-4 (R&D Systems). To achieve DC maturation, immature DCs were first cultured on day 5 with 10 ng/mL tumor necrosis factor alpha (TNF-α) (R&D Systems), 1000 µ/mL interferon gamma (IFN-y) (Actimmune), and 1 µg/mL prostaglandin E2 (PGE2) (Sigma). On day 6, phenotypically mature DCs were co-electroporated with RNA encoding CD40L (Argos Lot No. 101606 JSC) at a concentration of 3 ug per million DCs plus either human cytomegalovirus (CMV) pp65 or MART-1 encoding RNAs at 2 µg per million DCs (CMVpp65 RNA-Argos Lot No 071107XF, MART-1-APL RNA-Argos Lot No. 011909HC). Generation of MART-1 RNA and CD40L RNA is described in e.g., DeBenedette et al., J. Immunol. 181(8):5296-5305 (2008).
Electroporated DCs were cultured for an additional 4 hours in X-VIVO 15 media supplemented with 800 µ/mL GM-CSF and 500 µ/mL IL-4 at 1 x 10^6 DCs/mL in low adherence 6-well plates (Costar). After 4 hr, the DCs were harvested by washing with cold PBS and prepared as a frozen formulation at 10 x 10^6 DCs/mL in 20% DMSO and 80% FBS, representing antigen electroporated Post Maturation Electroporated (PME)-CD40L DC preparations.
(§2) PME-CD40L DCs derived from HLA-A2-positive donors and transfected with antigen-encoding mRNAs were co-cultured with purified CD8^+ T cells. All co-cultures were performed in R-10 media. CD8^+ T cells were purified using the CD8+ T Cell Negative Selection Kit II (Miltenyi Biotec) from non-adherent cells harvested from the monocyte adherence step. The CD8^+ cells were mixed with DCs at a 10:1 ratio and incubated in the presence of 0.2 µg/mL IL-2 and 10 ng/mL IL-7 (R&D Systems). DC/T cell co-cultures were re-stimulated on day 7 and supplemented with 20 units/mL IL-2 plus 10 ng/mL IL-7. Induction of primary immune responses to MART-1 and memory/recall responses to CMV pp65 were measured on day 10.
(§3) To identify antigen-specific T cell responses and the phenotype of the antigen specific cells, T cells were harvested on day 10 post-stimulation and incubated with peptide-pulsed T2 target cells at a ratio of 10:1 for 4 hour with Brefeldin A, Monensin (BD Biosciences) and CD107a PE-Cy5. […] After 4 hours of co-culture, responder T cells were stained for 10 minutes with the requisite peptide/pentamer reagent, then washed once and re-stained with CD8-Eflour605, CD45RA-FITC, and CD28-APC. Cells were then washed in PBS and stained with Aquadye (BD Biosciences) for analysis of viability. Labeled cells were then fixed and permeabilized in Fixation/Permeabilization solution (eBiosciences). Cells where then stained with IFN-γ-PECy7, TNFa-AF700 and IL-2-PerCPcy5.5 in permeabilization buffer and resuspended in FACs buffer prior to acquisition.
CD8^+ cytotoxic T lymphocyte (CTL) responses were used to measure the pp65 CMV recall response induced by PME-CD40L DCs in the presence of mTOR inhibitors everolimus and temsirolimus. PME-CD40L DCs encoding CMV pp65 were used to stimulate recall CTL responses in the presence of the mTOR inhibitors under evaluation for compatibility with the CMN-001 product. The expansion of recall CTLs specific for CMV pp65 was determined on day 3 after a second weekly stimulation with PME-CD40L DCs.

CMV pp65 specific CTLs [4] = test: CMV pp65 specific recall CTL effector function (IFN-γ, TNF-α, IL-2 secretion, CD107a expression); type: cell-based, human
Experimental: as §2, §3
To assess the impact mTOR inhibition would have on CTL effector function in vitro, CMV pp65 specific CTLs were assayed for the ability to secret the cytokines IFN-y, TNF-α and IL-2, and express the degranulation marker CD107a, which serves as a surrogate marker to measure lytic activity. Data presented in FIG. 2A and FIG. 2B measures the absolute numbers of CMV […] specific CTLs that secrete IFN-y, TNF-α or IL-2, or express CD107a in response to CMV pp65 peptide pulsed target cells. The absolute numbers of CMV^+ CTLs shown have been corrected for background non-specific responses to display only the antigen specific response for each parameter.

MART-1 specific CTLs [5] = test: Priming of MART-1 specific CTLs by PME-CD40L DCs in the presence of mTOR inhibitors; type: cell-based, human; conditions: in the presence of the mTOR inhibitor, 10 ng/ml to 1 ug/ml
Experimental: as §1, with “Generation of MART-1 RNA and CD40L RNA is described in e.g., DeBenedette et al., J. Immunol. 181(8):5296-5305 (2008).” left out
PME-CD40L DCs derived from HLA-A2-positive donors and transfected with antigen-encoding mRNAs were co-cultured with purified CD8^+ T cells. […] Induction of primary immune responses to MART-1 and memory/recall responses to CMV pp65 were measured on day 10. […]

MART-1 specific CTLs [6] = test: MART-1 specific CTL effector function (IFN-γ, TNF-α, IL-2 secretion, CD107a expression); type: cell-based, human; conditions: at the higher concentrations tested; compared to untreated CTLs
Experimental: as §2
as §3, with “Cells where then stained with IFN-γ-PECy7, TNFa-AF700 and IL-2-PerCPcy5.5 in permeabilization buffer and resuspended in FACs buffer prior to acquisition.” left out

[7] = 10 ng/ml, compared to DC/CTL co-cultures without mTOR inhibitor, day 3 after second weekly stimulation

SMILES | antiproliferative activity in vitro (human tumor cell lines [1]) | antiproliferative activity in murine tumor xenograft models (human tumor cell lines [2]) | numbers of CMV pp65 specific CTLs (CMV pp65 specific CTLs [3]; [7]) | percentage of CMV pp65 specific CTLs (CMV pp65 specific CTLs [3]; [7]) | increase in absolute numbers of CMV+ CTL (CMV pp65 specific CTLs [3]; 1 µg/ml) | increase in percentage of CMV+ CTL (CMV pp65 specific CTLs [3]; 1 µg/ml) | numbers of CMV+ CTL secreting a cytokine or expressing CD107a (CMV pp65 specific CTLs [4]; 10 ng/ml, compared to untreated CTLs) | increase in effector function of CMV+ CTL (CMV pp65 specific CTLs [4]; 1 µg/ml) | priming of MART-1 specific CTLs by PME-CD40L DC (MART-1 specific CTLs [5]) | numbers of MART-1+ CTL secreting a cytokine or expressing CD107a (MART-1 specific CTLs [6])
CO[C@H]1C[C@@H]2CC[C@@H](C)[C@@](O)(O2)C(=O)C(=O)N2CCCC[C@H]2C(=O)O[C@H]([C@H](C)C[C@@H]2CC[C@@H](OP(C)(C)=O)[C@H](OC)C2)CC(=O)[C@H](C)/C=C(\C)[C@@H](O)[C@@H](OC)C(=O)[C@H](C)C[C@H](C)/C=C/C=C/C=C/1C [Ridaforolimus, ridaforolimus] | antiproliferative activity | antiproliferative activity | – | – | – | – | – | – | – | –
CO[C@H]1C[C@@H]2CC[C@@H](C)[C@@](O)(O2)C(=O)C(=O)N2CCCC[C@H]2C(=O)O[C@H]([C@H](C)C[C@@H]2CC[C@@H](OC(=O)C(C)(CO)CO)[C@H](OC)C2)CC(=O)[C@H](C)/C=C(\C)[C@@H](O)[C@@H](OC)C(=O)[C@H](C)C[C@H](C)/C=C/C=C/C=C/1C [temsirolimus] | – | – | increase | increase | evident | evident | increased | maintained | able to prime | increased
